# According to paper PMC3145798, “The Extracytoplasmic Domain of the Mycobacterium tuberculosis Ser/Thr Kinase PknB Binds Specific Muropeptides and Is Required for PknB Localization” (PLoS Pathogens, 2011):
# “Also recorded” adds a separate entry of the source. *1 amine or outer side, *2 acyl side, *3 side chain or, on linkers, in order; H or OH if unused. Where a SMILES comes first, the peptide text is derived from it. [ ]: non-standard residue; d: D form. Mur = C[C@@H](O[C@H]1[C@H](O)[C@@H](CO)OC(O)[C@@H]1N[*:1])C(=O)[*:2]; d(isoGln) = NC(=O)[C@@H](CCC(=O)[*:2])N[*:1]
# Legend:
# [1] = target: T1, extracytoplasmic domain of M. tuberculosis PknB (ED-PknB, PASTA domains) (Mycobacterium tuberculosis, UniProt P9WI81); experiment: Surface plasmon resonance (Biacore) binding of synthetic muropeptides to immobilized ED-PknB; parameters: ka1: unit not given here; details: for Kd / ka1 / ka2 / kd1 / kd2: two-state binding model; for decrease in binding compared to compound 6a: ratio of affinities relative to 6a; for ka1 / ka2 / kd1 / kd2: 25°C
# T1 construct: GST (N, cleaved yes); made in house; host or cells: Escherichia coli BL21 (DE3)
# T1 sequence (P9WI81 354-626): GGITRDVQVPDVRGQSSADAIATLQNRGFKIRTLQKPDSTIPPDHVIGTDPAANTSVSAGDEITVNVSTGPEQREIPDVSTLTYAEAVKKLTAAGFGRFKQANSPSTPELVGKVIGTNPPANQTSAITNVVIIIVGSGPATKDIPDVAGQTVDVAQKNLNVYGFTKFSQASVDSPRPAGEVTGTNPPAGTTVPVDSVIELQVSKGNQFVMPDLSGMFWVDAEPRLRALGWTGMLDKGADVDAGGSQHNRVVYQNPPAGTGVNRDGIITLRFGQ
# [2] = system: dormant M. tuberculosis H37Rv cells; experiment: Dormancy and resuscitation assay (most probable number); format: cell-based, Mycobacterium tuberculosis H37Rv; details: for Fold increase in viable cell number relative to cultures grown in Sauton's medium without additive: muropeptide at 10 times the KD of 6c, spent medium 50%, MPN after 2 months at 37°C; for increase in viability relative to cells in fresh medium alone: two independent experiments (6 or 9 months hypoxic), experiment not assigned, most probable number analysis
# [3] = SPR Biacore T100, ED-PknB on CM-5 chip (5,000 RU), HBS-EP pH 7.4, 25°C, Table 1 and text
# [4] = Table S1, SPR, ED-PknB on CM-5 chip (5,000 RU)
# [5] = Experiment 1: 6 month old dormant culture
# [6] = Experiment 2: 9 month old dormant culture
Compound,binding to ED-PknB in words ([1]; SPR),"Kd [1, 3]","Kd [1, 4]","ka1 ([1]; Table S1, SPR)","ka2 ([1]; Table S1, SPR)","kd1 ([1]; Table S1, SPR)","kd2 ([1]; Table S1, SPR)",also measured
CC(=O)N[C@@H](C)C(=O)N[C@H](CCC(=O)N[C@@H](CCCC(N)C(=O)O)C(=O)N[C@H](C)C(=O)N[C@H](C)C(N)=O)C(N)=O (some centres unmarked) [Peptide 8 (amide/amide)],Neither compound showed significant interaction,> 500 µM,> 500 µM,–,–,–,–,–
CC(=O)N[C@H]1C(O)O[C@H](CO)[C@@H](O)[C@@H]1O[C@H](C)C(=O)N[C@@H](C)C(=O)N[C@H](CCC(=O)N[C@@H](CCCCN)C(=O)N[C@H](C)C(=O)N[C@H](C)C(N)=O)C(N)=O (stereo partly drawn) [MPP-Lys (D-Ala) 3a] (Ac-[Mur]A[d(isoGln)]K[dA][dA]-NH2),–,> 500 µM,> 500 µM,–,–,–,–,–
CC(=O)N[C@H]1C(O)O[C@H](CO)[C@@H](O)[C@@H]1O[C@H](C)C(=O)N[C@@H](C)C(=O)N[C@H](CCC(=O)N[C@@H](CCC[C@@H](N)C(=O)O)C(=O)N[C@H](C)C(=O)N[C@H](C)C(N)=O)C(N)=O (some centres unmarked) [MPP-DAP (amide/acid) 7],–,–,–,4316,1.4 10^-3 s^-1,161.5 10^-3 s^-1,2.8 10^-3 s^-1,decrease in binding compared to compound 6a ([1]; SPR): about two-fold
CC(=O)N[C@H]1C(O)O[C@H](CO)[C@@H](O)[C@@H]1O[C@H](C)C(=O)N[C@@H](C)C(=O)N[C@H](CCC(=O)N[C@@H](CCC[C@@H](N)C(=O)O)C(=O)N[C@H](C)C(N)=O)C(=O)O (some centres unmarked) [MTrP-DAP (acid/acid) 6d],–,–,–,1931,2.0 10^-3 s^-1,168.7 10^-3 s^-1,3.2 10^-3 s^-1,decrease in binding compared to compound 6a ([1]; SPR): four-fold
CC(=O)N[C@H]1C(O)O[C@H](CO)[C@@H](O)[C@@H]1O[C@H](C)C(=O)N[C@@H](C)C(=O)N[C@H](CCC(=O)N[C@@H](CCC[C@@H](N)C(N)=O)C(=O)N[C@H](C)C(N)=O)C(N)=O (some centres unmarked) [MTrP-DAP (amide/amide) 6c],–,–,14.9 µM,342.8,41.5 10^-3 s^-1,57.8 10^-3 s^-1,4.02 10^-3 s^-1,"Fold increase in viable cell number relative to cultures grown in Sauton's medium without additive [2, 5]: 9 fold; Fold increase in viable cell number relative to cultures grown in Sauton's medium without additive [2, 6]: 3 fold; increase in viability relative to cells in fresh medium alone [2]: three; also recorded: nine-fold"
CC(=O)NCCCC[C@H](NC(=O)CC[C@@H](NC(=O)[C@H](C)NC(=O)[C@@H](C)O[C@H]1[C@H](O)[C@@H](CO)OC(O)[C@@H]1NC(C)=O)C(N)=O)C(=O)N[C@H](C)C(N)=O (some centres unmarked) [MTrP-Lys (amide) NHAc 2b],–,> 500 µM,> 500 µM,–,–,–,–,–
CC(=O)N[C@H]1C(O)O[C@H](CO)[C@@H](O)[C@@H]1O[C@H](C)C(=O)N[C@@H](C)C(=O)N[C@H](CCC(=O)N[C@@H](CCCC(N)C(N)=O)C(=O)N[C@H](C)C(N)=O)C(=O)O (some centres unmarked) [MTrP-DAP (acid/amide) 6b],did not show measurable binding,> 100 µM,> 100 µM,–,–,–,–,–
CC(=O)N[C@H]1C(O)O[C@H](CO)[C@@H](O)[C@@H]1O[C@H](C)C(=O)N[C@@H](C)C(=O)N[C@H](CCC(=O)N[C@@H](CCCCN)C(=O)N[C@H](C)C(=O)NCC(N)=O)C(N)=O (some centres unmarked) [MPP-Lys (Gly) 3b] (Ac-[Mur]A[d(isoGln)]K[dA]G-NH2),–,> 500 µM,> 500 µM,–,–,–,–,"Fold increase in viable cell number relative to cultures grown in Sauton's medium without additive [2, 5]: 0.9 fold; Fold increase in viable cell number relative to cultures grown in Sauton's medium without additive [2, 6]: 1 fold; increase in viability relative to cells in fresh medium alone [2]: No increase in viability"
CC(=O)N[C@H](CCC[C@H](NC(=O)CC[C@@H](NC(=O)[C@H](C)NC(=O)[C@@H](C)O[C@H]1[C@H](O)[C@@H](CO)OC(O)[C@@H]1NC(C)=O)C(N)=O)C(=O)N[C@H](C)C(N)=O)C(=O)O (some centres unmarked) [MTrP-DAP(amide/acid)NHAc 6e],–,–,–,354.2,6.6 10^-3 s^-1,106 10^-3 s^-1,2.2 10^-3 s^-1,decrease in binding compared to compound 6a ([1]; SPR): six-fold
C[C@H](N)C(=O)N[C@H](CCC(=O)N[C@@H](CCCCN)C(=O)N[C@H](C)C(=O)N[C@H](C)C(N)=O)C(N)=O [Peptide 4 (amide)] (H-A[d(isoGln)]K[dA][dA]-NH2; N-terminus assumed),Neither compound showed significant interaction,–,–,–,–,–,–,–
CC(=O)N[C@H]1C(O)O[C@H](CO)[C@@H](O)[C@@H]1O[C@H](C)C(=O)N[C@@H](C)C(=O)N[C@H](CCC(=O)N[C@@H](CCCCN)C(N)=O)C(N)=O (some centres unmarked) [MTP-Lys (amide) 1],–,> 500 µM,> 500 µM,–,–,–,–,–
CC(=O)N[C@H]1C(O)O[C@H](CO)[C@@H](O)[C@@H]1O[C@H](C)C(=O)N[C@@H](C)C(=O)N[C@H](CCC(=O)N[C@@H](CCC[C@@H](N)C(=O)O)C(N)=O)C(N)=O (some centres unmarked) [MTP-DAP (amide/acid) 5],–,–,–,5577,1.64 10^-3 s^-1,172.9 10^-3 s^-1,3.86 10^-3 s^-1,–
CC(=O)N[C@H]1C(O)O[C@H](CO)[C@@H](O)[C@@H]1O[C@H](C)C(=O)N[C@@H](C)C(=O)N[C@H](CCC(=O)N[C@@H](CCC[C@@H](N)C(=O)O)C(=O)N[C@H](C)C(N)=O)C(N)=O (some centres unmarked) [MTrP-DAP (amide/acid) 6a],exhibited the highest affinity,–,–,3451,1.83 10^-3 s^-1,100.7 10^-3 s^-1,1.4 10^-3 s^-1,–
